Data reported in patent US20150044201A1, “CYCLON EXPRESSION FOR THE IDENTIFICATION AND CONTROL OF CANCER CELLS” (UNIVERSITE JOSEPH FOURIER - GRENOBLE, priority 2012, published 2015).
“Also recorded” adds a separate entry of the source.

Tests used:
Cyclon = details: K562 leukemic cells treated with Imatinib, public data GDS3043; cited from earlier work
Raji cells [1] = test: Evaluation of Rituximab sensitivity, complement dependent cytotoxicity (CDC) assay; assay type: cell-based; details: sh Cyclon vs sh Ctrl cell lines (Raji, B593, SUDHL4); 1 h, 1 μg/ml Rituximab, 20% human serum
Protocol: (§1) Non-targeting or CYCLON targeting short hairpin (sh) RNA sequences were designed using the DSIR algorithm (http://biodev.cea.fr/DSIR/DSIR.html). Sequences, provided in Table 1, were cloned into the pLKO-1 lentiviral vector (Addgene) and packaged as described (Levy et al., 2010) or purchased from Santa Cruz. Cells were transduced with lentiviral particles at a MOI of 10. Stable cell lines were established under puromycin selection (1 μg/ml).
(§2) Cells were treated with 1 to 10 μg/ml Rituximab (Roche) or isotype control (Herceptin, Roche) for 24 h for direct apoptosis assays and for 1 h in presence of 20% human serum as a source of complement for CDC assays. Cell viability was evaluated by AnnexinV/IP (Beckman Coulter) or IP staining and flow cytometry analysis (LSIIR, BD). Specific cell death was calculated as (% of cell death with Rituximab−% cell death with Herceptin)/(1−% cell death with Herceptin), n=8 for each cell line.

Raji cells [2] = test: Xenotransplantation assay, Raji shCtrl / shCyclon tumours treated with Rituximab; assay type: in vivo, nude mice; details: subcutaneous, daily intraperitoneal 200 μg Rituximab
Protocol: 3·10^6 Raji cells were injected subcutaneously into the flank of 6 to 8 week-old nude mice as described. Four mice were injected, each of them with shCtrl and shCyclon Raji cells into the right and left flanks respectively. When tumours were palpable (˜[…]), mice were given daily intraperitoneal injections of 200 μg Rituximab. Tumour volume was measured every 2 days using the formula I^2×L×0.52 (n=4 for each group).

Raji cells [3] = test: Evaluation of Rituximab sensitivity, direct apoptosis assay; assay type: cell-based; details: sh Cyclon vs sh Ctrl cell lines (Raji, B593, SUDHL4); 24 h, 10 μg/ml Rituximab
Protocol: as §1, §2

Row | Molecule | Cyclon expression level (Cyclon) | sensitivity of cancer cells through complement dependent cytotoxicity (CDC specific cell death) (Raji cells [1]) | tumour regression, day of treatment (Raji cells [2]; Cyclon-depleted tumours (Raji shCyclon)) | tumour regression, day of treatment (Raji cells [2]; control tumours (Raji shCtrl)) | sensitivity of cancer cells through direct apoptosis (specific cell death) (Raji cells [3])
1 | Cc1ccc(NC(=O)c2ccc(CN3CCN(C)CC3)cc2)cc1Nc1nccc(-c2cccnc2)n1 [Imatinib] | down-regulation of Cyclon; also recorded: reduce Cyclon expression levels |  |  |  | 
2 | Rituximab |  | increased sensitivity | ≤ 4 days | 14 days | increased sensitivity
